assay: Solubility test in propylene glycol monomethyl ether (PGME); conditions: 5% by mass in PGME, 5° C., 30 days
Procedure: A compound was dissolved at 5% by mass in propylene glycol monomethyl ether (PGME) at 23° C. Then, the solution was left to stand still at 5° C. for 30 days.
Evaluation A: No precipitate was visually confirmed.
Evaluation C: Precipitates were visually confirmed.

| solubility (summary in words of Table 7) | SMILES |
| --- | --- |
| good | CC(c1ccc(-c2ccccc2)cc1)(c1ccc(O)c(-c2ccccc2O)c1)c1ccc(O)c(-c2ccccc2O)c1 [BiP-3] |
| good | CC(c1ccc(-c2ccccc2)cc1)(c1ccc(O)c(-c2ccccc2)c1)c1ccc(O)c(-c2ccccc2)c1 [BiP-1] |
| good | CC(c1ccc(-c2ccccc2)cc1)(c1cc(-c2ccc(O)cc2)ccc1O)c1cc(-c2ccc(O)cc2)ccc1O [BiP-2] |
| good | CC(c1ccc(-c2ccccc2)cc1)(c1c(O)ccc2ccccc12)c1c(O)ccc2ccccc12 [BiN-1] |
| good | CC1(c2ccc(-c3ccccc3)cc2)c2c(ccc3ccc(O)cc23)Oc2ccc3ccc(O)cc3c21 [XBiN-2] |
| good | CC(c1ccc(-c2ccccc2)cc1)(c1c(O)ccc2ccc(O)cc12)c1c(O)ccc2ccc(O)cc12 [BiN-3] |
| good | CC(c1ccc(-c2ccccc2)cc1)(c1c(O)ccc2cc(O)ccc12)c1c(O)ccc2cc(O)ccc12 [BiN-2] |
| good | CC(c1ccc(C2CCCCC2)cc1)(c1ccc(O)c(-c2ccccc2O)c1)c1ccc(O)c(-c2ccccc2O)c1 [BiP-4] |

More lines, now with the values behind:

| SMILES | solubility (summary in words of Table 7) |
| --- | --- |
| CC(c1ccc(C2CCCCC2)cc1)(c1c(O)ccc2cc(O)ccc12)c1c(O)ccc2cc(O)ccc12 [BiN-4] | good |
| CC1(c2ccc(-c3ccccc3)cc2)c2c(ccc3cc(O)ccc23)Oc2ccc3cc(O)ccc3c21 [XBiN-1] | good |
| CC1(c2ccc(C3CCCCC3)cc2)c2ccc(O)cc2Oc2cc(O)ccc21 [P-4] | good |
| CC(c1ccc(O)cc1)(c1ccc(O)cc1)c1ccc(C2CCCCC2)cc1 [P-2] | good |
| CC1(c2ccc(-c3ccccc3)cc2)c2ccc(O)cc2Oc2cc(O)ccc21 [P-3] | good |
| CC1(c2ccc(C3CCCCC3)cc2)c2c(ccc3cc(O)ccc23)Oc2ccc3cc(O)ccc3c21 [XBiN-3] | good |

From US11130724B2, “Compound, resin, composition, resist pattern formation method, and circuit pattern formation method” (Mitsubishi Gas Chemical Company, Inc., priority 2015, dated 2021)
